pIC50: −log10 of the molar value. Values joined by “and” are separate entries in the source; they are usually repeats but may differ in a detail not shown here. Identical values can stand only once.
Biological target: Genome polyprotein (dengue virus type 2, UniProt P29990)
Assay type: functional, Thailand/16681/1984

Sequence of Genome polyprotein (P29990 1346-1475 limits assumed): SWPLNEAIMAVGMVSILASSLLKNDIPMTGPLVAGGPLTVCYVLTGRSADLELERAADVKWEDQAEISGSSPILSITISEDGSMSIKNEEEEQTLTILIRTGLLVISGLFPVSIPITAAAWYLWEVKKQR
Sequence of Genome polyprotein (P29990 1476-2093 limits assumed): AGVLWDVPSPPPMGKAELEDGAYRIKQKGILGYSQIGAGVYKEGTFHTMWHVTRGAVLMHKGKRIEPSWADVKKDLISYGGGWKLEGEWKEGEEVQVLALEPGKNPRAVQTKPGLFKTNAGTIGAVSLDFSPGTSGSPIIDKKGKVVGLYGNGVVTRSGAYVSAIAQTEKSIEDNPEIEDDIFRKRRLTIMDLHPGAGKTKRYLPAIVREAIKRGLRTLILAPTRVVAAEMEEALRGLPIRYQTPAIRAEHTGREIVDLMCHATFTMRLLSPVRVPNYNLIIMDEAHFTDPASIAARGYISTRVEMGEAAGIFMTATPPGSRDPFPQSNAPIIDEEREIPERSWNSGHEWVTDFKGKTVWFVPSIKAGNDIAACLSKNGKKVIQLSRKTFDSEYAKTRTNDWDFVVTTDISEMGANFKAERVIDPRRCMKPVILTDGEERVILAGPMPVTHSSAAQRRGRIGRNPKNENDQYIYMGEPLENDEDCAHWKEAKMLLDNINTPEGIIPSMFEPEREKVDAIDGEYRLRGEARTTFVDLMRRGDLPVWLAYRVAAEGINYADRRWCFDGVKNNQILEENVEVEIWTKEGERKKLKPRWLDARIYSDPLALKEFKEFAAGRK

| Compound | pIC50 |
| --- | --- |
| CCn1c(=O)c(N2CCCC[C@H](N3CCCC3)C2)nc2ccccc21 | < 4.00 |
| O=c1[nH]ncn1C1CCN(Cc2c[nH]c3ccccc23)CC1 | < 4.00 |
| CCn1c(=O)c(N2CC[C@H](N3CCCS3(=O)=O)C2)nc2ccccc21 | < 4.00 |
| N#Cc1ccccc1-c1ccc([C@H](NC(=O)OCc2ccccc2)C(=O)Nc2cccc(CN)c2)cc1 | 4.73 |
| COc1ncccc1-c1ccc([C@@H](NC(=O)OCc2ccccc2)C(=O)Nc2cccc(CN)c2)cc1 | 4.64 |
| CCNC(=O)[C@@H](NC(=O)OCc1ccccc1)c1ccc(OCc2ccccc2)cc1 | < 4.00 |
| CCn1c(=O)c(N2C[C@H]3C[C@@H](O)CC[C@H]3C2)nc2ccccc21 | < 4.00 |
| NCc1cccc(NC(=O)[C@@H](NC(=O)OCc2ccccc2)c2ccc(-c3ccc4scnc4c3)cc2)c1 | 4.37 |
| Cn1cc(Nc2ccc(S(=O)(=O)Nc3ccc(Cl)cc3C(=O)O)cn2)cn1 | < 4.00 |
| CCOc1ccc(F)cc1-c1cn(CC)c(=O)c(N2CC[C@@H](CO)C2)n1 | < 4.00 |
| O=C(NS(=O)(=O)C1CC1)c1cc(Cl)ccc1NS(=O)(=O)c1ccc(Oc2ccccc2Cl)cc1 | 5.14 |
| CCc1ccc(-c2ccc([C@@H](NC(=O)OCc3ccccc3)C(=O)Nc3cccc(CN)c3)cc2)cc1 | 5.18 |
| CCn1cc(-c2cncc(OC)c2)nc(N2CC[C@@H](CO)C2)c1=O | < 4.00 |
| CN1Cc2ccc(CNC(=O)[C@@H](NC(=O)OCc3ccccc3)c3ccc(OCc4ccccc4)cc3)cc2C1 | < 4.00 |
| CC[C@H]1CN2CCC[C@H]2CN1c1nc2ccccc2n(CC)c1=O | < 4.00 |
| CCn1c(=O)c(N2C[C@@H]3CN(C4CCC4)C[C@@H]3C2)nc2ccccc21 | < 4.00 |
| CCn1c(=O)c(N2CC3(CCC3)C[C@@H]2C)nc2ccccc21 | < 4.00 |
| CCn1cc(-c2cccc(CN(C)C)c2)nc(N2CC[C@@H](CO)C2)c1=O | < 4.00 |
| CC(C)c1cc(-c2ccc([C@@H](NC(=O)OCc3ccccc3)C(=O)Nc3cccc(CN)c3)cc2)on1 | < 4.00 |
| CCn1cc(-c2ccccc2C(C)C)nc(N2CC[C@@H](CO)C2)c1=O | < 4.00 |
| NCc1cccc(NC(=O)[C@@H](NC(=O)OCc2ccccc2)c2ccc(-c3ccnc4[nH]ccc34)cc2)c1 | < 4.00 |
| CCn1cc(-c2ccc3c(c2)CCNC3)nc(N2CC[C@@H](CO)C2)c1=O | < 4.00 |
| CCn1cc(-c2ccccc2N)nc(N2CC[C@@H](CO)C2)c1=O | < 4.00 |
| O=C(O)c1cc(Cl)ccc1CNS(=O)(=O)c1ccc(Oc2ccccc2Cl)cc1 | 4.01 |
| CCn1c(=O)c(N2C[C@@H]3CS(=O)(=O)C[C@@H]3C2)nc2ccccc21 | < 4.00 |

| Compound | pIC50 |
| --- | --- |
| COc1cncc(CNC(=O)[C@@H](NC(=O)OCc2ccccc2)c2ccc(OCc3ccccc3)cc2)c1 | < 4.00 |
| CCn1cc(-c2ccc3ocnc3c2)nc(N2CC[C@@H](CO)C2)c1=O | < 4.00 |
| CCn1c(=O)c(N2CC[C@@H](CN3CCCCC3)C2)nc2ccccc21 | < 4.00 |
| Cc1noc(C)c1-c1ccc([C@@H](NC(=O)OCc2ccccc2)C(=O)Nc2cccc(CN)c2)cc1 | < 4.00 |
| CN1CCc2ccc(C(=O)N3CCNc4ccccc4C3)cc2C1 | < 4.00 |
| NS(=O)(=O)c1ccc(N2CCC=C(c3cccc(O)c3)C2)c2ncccc12 | < 4.00 |
| O=C(O)c1cc(Cl)ccc1NS(=O)(=O)c1ccc(N[C@H]2CCCOC2)nc1 | < 4.00 |
| CCn1c(=O)c(N2C[C@@H]3CCO[C@]3(COC)C2)nc2ccccc21 | < 4.00 |
| CCn1cc(-c2cn(C)nc2C)nc(N2CC[C@@H](CO)C2)c1=O | < 4.00 |
| CCn1c(=O)c(N2CCC[C@H]2c2noc(C)n2)nc2ccccc21 | < 4.00 |
| Cc1nc(-c2ccc([C@@H](NC(=O)OCc3ccccc3)C(=O)Nc3cccc(CN)c3)cc2)cs1 | < 4.00 |
| CCn1c(=O)c(N2CC[C@@]3(COC(=O)N3)C2)nc2ccccc21 | < 4.00 |
| NCc1cccc(NC(=O)[C@@H](NC(=O)OCc2ccccc2)c2ccc(C3=CCCOC3)cc2)c1 | < 4.00 |
| CN1CC[C@H](C2CCN(S(=O)(=O)c3cc(F)cc(C(=O)O)c3)CC2)C1 | < 4.00 |
| CN(C)CCOc1cccc(CNC(=O)[C@@H](NC(=O)OCc2ccccc2)c2ccc(OCc3ccccc3)cc2)c1 | < 4.00 |
| CCn1cc(C(=O)O)nc(N2CC[C@@H](CO)C2)c1=O | < 4.00 |
| Cc1cnn(-c2cccc(-c3cccc(C4(CN)CC4)c3)c2)c1 | < 4.00 |
| O=C(N[C@@H](C(=O)NCc1cccnc1)c1ccc(OCc2ccccc2)cc1)OCc1ccccc1 | < 4.00 |
| COc1cccc(-c2ccc([C@@H](NC(=O)OCc3ccccc3)C(=O)Nc3cccc(CN)c3)cc2)c1 | 5.04 and 5.21 and 5.18 |
| Cc1cccc(-c2ccc([C@@H](NC(=O)OCc3ccccc3)C(=O)Nc3cccc(CN)c3)cc2)c1 | 5.03 |
| CCn1c(=O)c(N2CCC[C@H]2c2cncc(Br)c2)nc2ccccc21 | < 4.00 |
| O=C(N[C@@H](C(=O)NCc1c[nH]cn1)c1ccc(OCc2ccccc2)cc1)OCc1ccccc1 | < 4.00 |
| Cc1ccc(COc2ccc(S(=O)(=O)Nc3ccc(Cl)cc3C(=O)O)cc2)cc1 | 5.02 |
| O=C(N[C@@H](C(=O)NC1CCCCC1)c1ccc(OCc2ccccc2)cc1)OCc1ccccc1 | < 4.00 |
| CCn1c(=O)c(N2CC[C@H](NC(=O)NC3CC3)C2)nc2ccccc21 | < 4.00 |

| Compound | pIC50 |
| --- | --- |
| NCc1cccc(NC(=O)[C@@H](NC(=O)OCc2ccccc2)c2ccc(-c3ccc4cn[nH]c4c3)cc2)c1 | 5.22 and 5.24 |
| CCn1c(=O)c(N2C[C@H]3COC(C)(C)OC[C@H]3C2)nc2ccccc21 | < 4.00 |
| CN1CCc2ncc(NC(=O)[C@@H](NC(=O)OCc3ccccc3)c3ccc(OCc4ccccc4)cc3)cc2C1 | < 4.00 |
| CCn1c(=O)c(N2CC(S(=O)(=O)N3CCCC3)C2)nc2ccccc21 | < 4.00 |
| OCc1ccc(Cl)c(N2CCN(c3ccc4[nH]cnc4c3)CC2)n1 | < 4.00 |
| NCc1cccc(NC(=O)[C@@H](NC(=O)OCc2ccccc2)c2ccc(-c3cccc4nonc34)cc2)c1 | 4.94 and 5.24 |
| CS(=O)(=O)NC(=O)c1cc(Cl)ccc1NS(=O)(=O)c1ccc(Oc2ccccc2Cl)cc1 | 4.91 |
| O=C(N[C@@H](C(=O)NCc1ccncc1)c1ccc(OCc2ccccc2)cc1)OCc1ccccc1 | < 4.00 |
| CCn1c(=O)c(N2CC[C@@H](Cc3ccncc3)C2)nc2ccccc21 | < 4.00 |
| CCc1ccccc1-c1ccc([C@@H](NC(=O)OCc2ccccc2)C(=O)Nc2cccc(CN)c2)cc1 | 5.04 |
| CCn1c(=O)c(N2CC3(CCCCC3)C[C@H]2CO)nc2ccccc21 | < 4.00 |
| NCc1cccc(NC(=O)[C@@H](NC(=O)OCc2ccccc2)c2ccc(-c3ccc(N)nc3)cc2)c1 | < 4.00 |
| Cn1cc(-c2ccc([C@@H](NC(=O)OCc3ccccc3)C(=O)Nc3cccc(CN)c3)cc2)cn1 | < 4.00 |
| CN(C)Cc1cc(CNC(=O)[C@@H](NC(=O)OCc2ccccc2)c2ccc(OCc3ccccc3)cc2)ccc1F | < 4.00 |
| CCn1cc(-c2c[nH]c3ncccc23)nc(N2CC[C@@H](CO)C2)c1=O | < 4.00 |
| CCn1c(=O)c(N2C[C@H]3CN(C)CC[C@H]3C2)nc2ccccc21 | < 4.00 |
| COc1ccc(COc2ccc(S(=O)(=O)Nc3ccc(Cl)cc3C(=O)O)cc2)nc1 | 4.13 |
| NCc1cccc(NC(=O)[C@@H](NC(=O)OCc2ccccc2)c2ccc(-c3cncnc3)cc2)c1 | < 4.00 |
| CC(C)(C)c1ncc(-c2ccc([C@@H](NC(=O)OCc3ccccc3)C(=O)Nc3cccc(CN)c3)cc2)o1 | < 4.00 |
| CCn1c(=O)c(N2CC[C@]3(CCCN(C)C3)C2)nc2ccccc21 | < 4.00 |
| CCn1c(=O)c(N2C[C@H]3OCCN(C(C)=O)[C@H]3C2)nc2ccccc21 | < 4.00 |
| NCc1cccc(NC(=O)[C@@H](NC(=O)OCc2ccccc2)c2cccc(OCc3cncnc3)c2)c1 | < 4.00 |
| O=C(N[C@@H](C(=O)Nc1cccnc1)c1ccc(OCc2ccccc2)cc1)OCc1ccccc1 | < 4.00 |
| CCn1cc(-c2ccc(S(C)(=O)=O)cc2)nc(N2CC[C@@H](CO)C2)c1=O | < 4.00 |
| CCn1c(=O)c(N2CC[C@@]3(CCCN3C)C2)nc2ccccc21 | < 4.00 |

| Compound | pIC50 |
| --- | --- |
| CNc1nc2cc(-c3ccc4c(c3)C[C@H](N)C4)ccc2o1 | < 4.00 |
| Cc1ccc(F)c(-c2ccc([C@@H](NC(=O)OCc3ccccc3)C(=O)Nc3cccc(CN)c3)cc2)c1 | 5.02 |
| CN(C)[C@H]1CCc2cc(-c3cccc(N4CCNC4=O)c3)ccc2NC1 | < 4.00 |
| NCc1cccc(NC(=O)[C@@H](NC(=O)OCc2ccccc2)c2ccc(-c3ccncc3F)cc2)c1 | < 4.00 |
| NCc1cccc(NC(=O)[C@@H](NC(=O)OCc2ccccc2)c2ccc(-c3cccnc3F)cc2)c1 | 4.15 |
| NCc1cccc(NC(=O)[C@@H](NC(=O)OCc2ccccc2)c2ccc(-c3cc4cccnc4s3)cc2)c1 | 5.22 |
| O=C(O)c1cc(Cl)c(F)cc1NS(=O)(=O)c1ccc(Oc2ccccc2)cc1 | 4.88 |
| COc1ccccc1-c1ccc([C@@H](NC(=O)OCc2ccccc2)C(=O)Nc2cccc(CN)c2)cc1 | < 4.00 |
| CCn1cc(-c2ccc(CN(C)C)cc2)nc(N2CC[C@@H](CO)C2)c1=O | < 4.00 |
| CC(C)(CO)NC(=O)[C@@H](NC(=O)OCc1ccccc1)c1ccc(OCc2ccccc2)cc1 | < 4.00 |
| CCn1cc(-c2ccc([C@@H](NC(=O)OCc3ccccc3)C(=O)Nc3cccc(CN)c3)cc2)cn1 | < 4.00 |
| Cc1n[nH]cc1-c1ccc([C@@H](NC(=O)OCc2ccccc2)C(=O)Nc2cccc(CN)c2)cc1 | < 4.00 |
| Cn1cc(-c2ccc([C@@H](NC(=O)OCc3ccccc3)C(=O)Nc3cccc(CN)c3)cc2)ccc1=O | < 4.00 |
| CCn1c(=O)c(N2C[C@H]3CCCN3C(=O)[C@H]2C)nc2ccccc21 | < 4.00 |
| CCn1c(=O)c(N2CCC[C@H]2CN2CCCC2)nc2ccccc21 | < 4.00 |
| CCn1cc(-c2cccc(-c3ccccc3)c2)nc(N2CC[C@@H](CO)C2)c1=O | < 4.00 |
| O=C(N[C@@H](C(=O)NCc1ccccn1)c1ccc(OCc2ccccc2)cc1)OCc1ccccc1 | < 4.00 |
| CCn1cc(-c2cn(C)nc2C(F)(F)F)nc(N2CC[C@@H](CO)C2)c1=O | < 4.00 |
| CCn1c(=O)c(N2CC[C@H](N3CCN(C)CC3)C2)nc2ccccc21 | < 4.00 |
| CCn1cc(-c2ccncc2F)nc(N2CC[C@@H](CO)C2)c1=O | < 4.00 |
| CCn1c(=O)c(N2CCC[C@H]2c2ncccn2)nc2ccccc21 | < 4.00 |
| CCn1cc(-c2ccccc2C(=O)OC)nc(N2CC[C@@H](CO)C2)c1=O | < 4.00 |
